Measured values published in patent publication EP0324626A1, “1,4-Dihydropyridine derivatives” (priority 1988, dated 1989).

experiment: Acute toxicity test (limit test and range finding test), oral administration; details: both, ICR, mouse, in vivo
Experimental: The limit test and the range finding test were carried out using the SPF mice, as stated below, and LD₅₀ values were determined.
The dead mice are weighed and organ examinations are carried out for macroscopical lesions. Also, on the last day of the test all surviving mice are sacrificed and used for examinations.
If the mortality is more than 50% in the limit test, the range finding test is carried out for 14 days with three doses groups including the putative LD₅₀ value. The method is same as the foregoing limit test.

| Structure (SMILES) | LD50 at 14 days [mg/kg] |
| --- | --- |
| C=CC(C)OC(=O)C1=C(C)NC(C)=C(C(=O)OCCN(C)Cc2ccccc2)C1c1cccc([N+](=O)[O-])c1 (stereo not drawn) [Example 1, 3-β-(N-benzyl-N-methylamino)ethyl 5-(1-methyl-2-propenyl) 2,6-dimethyl-4-(3′-nitrophenyl)-1,4-dihydropyridine-3,5-dicarboxylate] | > 1000 |
| C=CC(C)OC(=O)C1=C(C)NC(C)=C(C(=O)OCCOC)C1c1cccc([N+](=O)[O-])c1 (stereo not drawn) [Example 3, 3-(1-methyl-2-propenyl) 5-(2-methoxyethyl) 2,6-dimethyl-4-(3′-nitrophenyl)-1,4-dihydropyridine-3,5-dicarboxylate] | > 5000 |
| C=C(C)COC(=O)C1=C(C)NC(C)=C(C(=O)OCCN(C)Cc2ccccc2)C1c1cccc([N+](=O)[O-])c1 (stereo not drawn) [Example 8, 3-β-(N-benzyl-N-methylamino)ethyl 5-(2-methyl-2-propenyl) 2,6-dimethyl-4-(3′-nitrophenyl)-1,4-dihydropyridine-3,5-dicarboxylate] | > 1000 |
| C=C(C)COC(=O)C1=C(C)NC(C)=C(C(=O)OC)C1c1cccc([N+](=O)[O-])c1 (stereo not drawn) [Example 12, 3-methyl 5-(2-methyl-2-propenyl) 2,6-dimethyl-4-(3′-nitrophenyl)-1,4-dihydropyridine-3,5-dicarboxylate] | 1000 |
| C=CCOC(=O)C1=C(C)NC(C)=C(C(=O)OCC(=C)C)C1c1cccc([N+](=O)[O-])c1 (stereo not drawn) [Example 13, 3-(2-methyl-2-propenyl) 5-allyl 2,6-dimethyl-4-(3′-nitrophenyl)-1,4-dihydropyridine-3,5-dicarboxylate] | > 5000 |
| COC(=O)C1=C(C)NC(C)=C(C(=O)OCCN(C)Cc2ccccc2)C1c1cccc([N+](=O)[O-])c1 (stereo not drawn) [Nicardipine, reference compound] | < 700 |
